Laboratory results published in paper PMC8179358, “An explicitly designed paratope of amyloid-β prevents neuronal apoptosis in vitro and hippocampal damage in rat brain” (Chemical Science, 2020).
*1 amine or outer side, *2 acyl side, *3 side chain or, on linkers, in order; H or OH if unused. Where a SMILES comes first, the peptide text is derived from it. Bridges are numbered along the chain shown (N, C = ends). Roman numbers before positions name the chains, in order. [ ]: non-standard residue; d: D form. X1 = O=C(CCCCC(=O)[*:2])NCCCOCCOCCOCCCNC(=O)CCC(=O)[*:1]; NMeF = CN[C@@H](Cc1ccccc1)C(=O)O; NMeL = CN[C@@H](CC(C)C)C(=O)O; NMeV = CN[C@H](C(=O)O)C(C)C

What was measured:
liver and kidney tissue = assay: Sub-chronic toxicity, histopathology of liver and kidney; assay type: in vivo, Sprague-Dawley rats; settings: 100 and 500 μg kg−1, tail vein, once daily, 42 days, n = 8/group
Description: The tabulated biochemical profile (novel biomarkers of the liver and kidney) corroborates the safety charms of SP1 for further in vivo studies.
24 male Sprague Dawley rats were randomly divided into three groups: control, SP1A, and SP1B. Each group contains 8 animals and administration of SP1was performed for 42 days through a tail vein by the following schedule: Control: Without any treatment.
Rats were sacrificed after 42 days of injection schedule and blood was collected for hematological and biochemical estimations. For the histopathological study, the liver and kidney were also isolated very carefully and checked for cytoarchitectural changes if any.
The body weights and volumes of SP1 to be administered were recorded for each animal. Prior to injection, the tail of the animal was warmed by using warm water circulating pad placed under the cage for 5-10 minutes to dilate the veins. A 25-gauge needle was inserted into the vein towards the direction of the head. The needle and syringe were kept parallel to the tail. […]
The biochemical parameters including blood glucose, serum urea, creatinine, total bilirubin, serum glutamic oxaloacetic transaminase (SGOT), serum glutamic pyruvic transaminase (SGPT), and alkaline phosphatase (ALP) were analyzed for sub-chronic toxicity of SP1by using commercially available diagnostic test kits (Crest Biosystems kits, India). […]

[1] = system: hippocampal neurons, Aβ40-infused rats; assay: Cresyl violet staining of Nissl granules in hippocampal neurons; assay type: in vivo, Sprague-Dawley rats; settings: intra-hippocampal Aβ40, vs control and sham, P < 0.01, n = 6
Description: The overproduction of Aβ damages hippocampal neurons and causes cognitive impairments in AD. […] Cresyl violet staining was performed for identification of Nissl granules in neurons to reveal hippocampal neurodegeneration in this experiment. […]
e. Histopathological experiments for sub-chronic toxicity
Histopathological analysis was carried out on the preserved liver and kidney tissues. The SP1 treated rats and control rats were sacrificed by decapitation after 42 days of treatment schedule. Organs were removed and fixed in 10% buffered neutral formalin for 48 h. The fixed organs were embedded in paraffin wax. Sections were cut by using a microtome with 5-micrometer thickness. Slides were stained with Haematoxylin and eosin (H &E staining) for histological examination. Slides were observed under the light microscope (Dewinter Smart, India)for histopathological changes, and images were taken at […]
The lyophilized Aβ40 peptide was dissolved in artificial cerebrospinal fluid (aCSF: 119mM NaCl, 26.2mm NaHCO3, 2.5mM KCl, 1mM NaH2PO4, 1.3mM MgCl2, 10mM glucose; pH 7.4) solution at a concentration of 1mg/ml for stock and incubated at 37°C for 72 h to induce aggregation. The solution finally kept at 4°C before using it. […]
respective concentrations of SP1were prepared from this stock solution. g. […]

Compound | cytoarchitectural changes in liver and kidney tissue (liver and kidney tissue) | intensity of Nissl granules, Aβ40 alone [1]
CC(C)C[C@H](NC(=O)CNC(=O)CCC(=O)NCCCOCCOCCOCCCNC(=O)CCCCC(=O)NCC(=O)N(C)[C@@H](CC(C)C)C(=O)N[C@H](C(=O)N(C)[C@@H](Cc1ccccc1)C(=O)N[C@@H](Cc1ccccc1)C(=O)N[C@@H](C)C(N)=O)C(C)C)C(=O)N(C)[C@H](C(=O)N[C@@H](Cc1ccccc1)C(=O)N(C)[C@@H](Cc1ccccc1)C(=O)N[C@@H](C)C(N)=O)C(C)C [SP1] (I: GL[NMeV]F[NMeF]A-NH2 / II: G[NMeL]V[NMeF]FA-NH2; linker I:N-II:N via X1) | did not observe any cytoarchitectural changes in the liver and kidney tissue | –
Aβ40: commercially available Aβ40 peptide | – | significant (P < 0.01) decrease in the intensity of Nissl granules
